Test results published in paper PMC4102531, “Pharmacologic Inhibition of Sphingomyelin Synthase (SMS) Activity Reduces Apolipoprotein-B Secretion from Hepatocytes and Attenuates Endotoxin-Mediated Macrophage Inflammation” (PLoS ONE, 2014).

Target: T1, SMS2 (sphingomyelin synthase 2) (Mus musculus, UniProt Q9D4B1)
T1 construct: gene Sgms2; native enzyme in liver homogenate of SMS1 KO mice
T1 sequence (Q9D4B1 1-365): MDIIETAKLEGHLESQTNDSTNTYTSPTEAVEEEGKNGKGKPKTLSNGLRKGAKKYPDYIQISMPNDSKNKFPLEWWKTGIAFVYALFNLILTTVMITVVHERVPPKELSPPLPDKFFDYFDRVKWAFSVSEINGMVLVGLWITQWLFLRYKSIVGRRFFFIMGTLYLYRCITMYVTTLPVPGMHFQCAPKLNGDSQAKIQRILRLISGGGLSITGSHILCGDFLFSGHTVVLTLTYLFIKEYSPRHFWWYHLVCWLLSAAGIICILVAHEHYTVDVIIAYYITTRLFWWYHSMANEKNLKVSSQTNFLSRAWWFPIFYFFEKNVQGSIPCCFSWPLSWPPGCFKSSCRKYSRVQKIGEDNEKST
Assay: SMS activity assay in SMS1 KO mouse liver homogenate
Type: cell-based

## N#CC(Nc1ccccc1)c1ccccc1OCc1ccccc1 (stereo not shown) [Dy105, 2-(2-(benzyloxy)phenyl)-2-(phenylamino) acetonitrile]
  SMS activity assay in SMS1 KO mouse liver homogenate: we found the compound can inhibit SMS2 but not SMS1 activity (Fig. 3A and B) in the liver
